Drawing on the NIST ThermoML archive (doi:10.1016/j.jct.2016.01.017), this text covers activity coefficient for four molecules.

± gives the expanded uncertainty stated by the source.

A short description of the series: activity coefficient (dimensionless); of the first substance listed, at infinite dilution; xn = mol fraction of the nth substance listed. As to conditions: 100 kPa, Liquid, Chromatography, x1 = 0.

For the molecule `C=CCCC` [1-pentene] + CCCC[n+]1ccc(C#N)cc1.O=S(=O)([N-]S(=O)(=O)C(F)(F)F)C(F)(F)F, the activity coefficient is 11.5 ± 1 (308.15 K); 10.9 ± 0.9 (318.15 K); 10.3 ± 0.9 (328.15 K); 9.83 ± 0.85 (338.15 K); 9.41 ± 0.81 (348.15 K); 9.02 ± 0.78 (358.15 K). Also, the activity coefficient (368.15 K) came to 8.65 ± 0.75.
For `CO` [methanol] + CCCC[n+]1ccc(C#N)cc1.O=S(=O)([N-]S(=O)(=O)C(F)(F)F)C(F)(F)F, the activity coefficient runs as follows: (308.15 K) 1.33 ± 0.11; (318.15 K) 1.27 ± 0.11; (328.15 K) 1.21 ± 0.1; (338.15 K) 1.17 ± 0.1; (348.15 K) 1.12 ± 0.09; (358.15 K) 1.08 ± 0.09. Further, the activity coefficient (368.15 K) was 1.05 ± 0.09.
Take `CCCCCO` [pentan-1-ol] + CCCC[n+]1ccc(C#N)cc1.O=S(=O)([N-]S(=O)(=O)C(F)(F)F)C(F)(F)F: the activity coefficient was 3.84 ± 0.33 (308.15 K); 3.58 ± 0.31 (318.15 K); 3.36 ± 0.29 (328.15 K); 3.15 ± 0.27 (338.15 K); 2.97 ± 0.26 (348.15 K); 2.81 ± 0.24 (358.15 K). In addition, the activity coefficient (368.15 K) was determined as 2.67 ± 0.23.
For the molecule `COC(C)(C)C` [2-methoxy-2-methylpropane] + CCCC[n+]1ccc(C#N)cc1.O=S(=O)([N-]S(=O)(=O)C(F)(F)F)C(F)(F)F, the activity coefficient by setting is: (308.15 K) 3.01 ± 0.26; (318.15 K) 3.13 ± 0.27; (328.15 K) 3.24 ± 0.28; (338.15 K) 3.35 ± 0.29; (348.15 K) 3.45 ± 0.3; (358.15 K) 3.56 ± 0.31. Besides, where the note is “368.15 K”, the activity coefficient came to 3.66 ± 0.32.
